Source: patent publication US20240226170A9, “USE OF MBV FOR TREATING AUTOIMMUNE DISEASE” (University of Pittsburgh - Of the Commonwealth System of …, priority 2019, published 2024)

Assays:
[1] = test system: antibody response to the KLH antigen; conditions: days 7, 14, and 21 post-immunization; MBV 1 mg/ml i.v. on Day 0, 3, 6; cyclophosphamide 200 mg/kg i.p. on Day 0
Protocol: The Keyhold Limpet Hemocyanin (KLH) rat model of immunosuppression and immunotoxicity was used to assess immunotoxicity of MBV delivered systemically. […] On Day 0, the cyclophosphamide treated animals received 200 mg/kg i.p. and the MBV treated animals received 1 mg/ml UBM MBV delivered intravenously on Day 0, 3, and 6. On Day 7, all groups besides the vehicle control were immunized with 0.4 mL of 1000 μg/ml reconstituted KLH in Freund's incomplete adjuvant i.p. On days 14, 21, and 28 (7, 14, and 21 days post-immunization), whole blood was collected from the lateral tail vein and serum was isolated for analysis of anti-KLH IgM and IgG. Anti-KLH IgM and IgG were assessed in the serum of all animals using ELISA.

[2] = test system: Pristane-induced arthritis; test: Pristane-induced arthritis in rats, 60-point arthritis score; assay type: in vivo; conditions: for disease severity (arthritis score) compared to Pristane+PBS: p<0.05
Protocol: The Pristane-induced arthritis model in rats has been established as a clinically-relevant animal model for studying rheumatoid arthritis (Tuncel et al. PLoS One. 2016; 11(5):e0155936). Pristane induced arthritis was induced in 8-week-old, female, Sprague-Dawley rats by an intradermal injection of 300 μL Pristane (2,6,10,14-tetramethypentadecane) at the dorsal side of the tail, 1 cm distal to the base on Day 0 of the study. […] A second dose of 300 μL pristane was administered intradermally, approximately 1 cm distally to the dorsal tail base on Day 4. Animals receiving Pristane were housed together in cages. Animals receiving Pristane were randomized into the following experimental groups: Pristane-only+PBS, Pristane+i.p. Methotrexate (MTX), Pristane+periarticular (p.a.) MBV, and intravenous (i.v.) MBV.
An arthritis score was determined on days 7, 10, 14, 17, 21, 28, and every week thereafter through an endpoint of 100 days for each animal. Photographs of each forepaw and hindpaw were taken as viewed from the volar and plantar perspectives, respectively. Qualitative arthritis severity was evaluated by two independent reviewers using a 60-point arthritis scoring criteria: 1 point was given for each inflamed knuckle or toe, and up to 5 points was assigned for an affected ankle (15 points per paw, 60 points per each rat). […] The Pristane+i.p. methotrexate animals received 0.1 mg/kg methotrexate in 1× sterile PBS (pH 7.4) delivered intra-peritoneally (i.p.) on days 7, 10, 14, 17, and 21. The Pristane+periarticular MBV animals received 25 μL of 500 μg/mL porcine-derived UBM MBV (1×10^11 particles/mL) delivered in the plantar and volar surfaces of hindpaws and forepaws, respectively. The intravenous MBV group received 100 μL of 500 μg/mL UBM MBV (1×10^11 particles/mL) delivered intravenously into the lateral tail vein of the animal. (FIG. 12A) Four animals in each group were assigned to a short-term study of 28 days and four animals were assigned to a 100 day study. Sample size was determined using previously published effect size of methotrexate with a predetermined alpha 0.05 and beta 0.80. Arthritis score was represented as mean+/−standard error of mean. Days 7-21 represent an n of 8 for each group and then days 28 and onward represent an n of 4 for each group. Differences in groups were analyzed using two-way analysis of variance with Tukey's post-hoc correction. Significance was determined prior to the study as p<0.05.

[3] = test system: tibiotalar joint and adjacent synovium; test: Histopathologic scoring of the tibiotalar joint at day 100 (pristane-induced arthritis); assay type: in vivo, Sprague-Dawley rats; conditions: i.p. MTX, not significant (p>0.05)
Source text: Synovial inflammation, cartilage destruction, and proteoglycan loss are fundamental histopathologic changes that occur in RA disease progression. To determine the effect of MBV treatment on these histopathologic parameters, rat hind paws were collected at study termination for histopathologic imaging and analysis (day 100) from the animals from Example 2.
One hindpaw from each animal was used for histopathological analysis. Tissue specimens were fixed with 10% formalin in PBS, pH 7.4, decalcified using 5% formic acid, and embedded in paraffin wax. Sections were stained with hematoxylin and eosin (H&E) for examination by light microscopy for joint histology and pathology. […]
Inflammation and joint damage of the tibiotalar joint were investigated by using an adapted three-parameter scoring system. Inflammation was scored on a scale of 0-3 (with 0 representing no inflammation and 3 a severe inflamed joint) depending on the relative proportion of inflammatory cells in the synovial tissue. Cartilage destruction was scored on a scale of 0-3, with results ranging from the appearance of dead chondrocytes and empty lacunae to complete loss of articular cartilage. Loss of proteoglycans in cartilage was scored on a scale of 0-3, and here results ranged from fully stained cartilage by toluidine blue staining to complete loss of articular cartilage. […]

[4] = test system: bone remodeling and joint destruction in fore- and hindpaws; test: MicroCT imaging of paws at day 100 (pristane-induced arthritis); assay type: in vivo, Sprague-Dawley rats; conditions: i.p. MTX, qualitative
Source text: Micro-Computed Tomography (microCT) images were acquired of hindpaws after sacrifice at day 100 of the animals studied in Example 2.

O=P1(N(CCCl)CCCl)NCCCO1 (stereo not shown) [Cyclophosphamide]
anti-KLH IgG levels compared to the Vehicle+KLH control [1]: significantly reduces anti-KLH IgG levels | anti-KLH IgM levels compared to the Vehicle+KLH control [1]: significantly reduces anti-KLH IgM levels

CN(Cc1cnc2nc(N)nc(N)c2n1)c1ccc(C(=O)N[C@@H](CCC(=O)O)C(=O)O)cc1 [MTX, methotrexate]
peak disease score ([2]; acute phase (days 0-42), Pristane+i.p. MTX 0.1 mg/kg on days 7, 10, 14, 17, 21, peak at day 21, mean±SEM): 9.8±0.8 | disease severity (arthritis score) compared to Pristane+PBS ([2]; acute phase, Pristane+i.p. MTX 0.1 mg/kg): reduced acute disease severity at days 10, 14, 17, and 21 | disease severity (arthritis score) compared to Pristane+PBS ([2]; acute phase, Pristane+i.p. MTX 0.1 mg/kg, listed as methotrexate): significantly reduces disease scoring | disease severity (arthritis score) compared to Pristane+PBS ([2]; chronic phase, days 84-100, no treatment after day 28, Pristane+i.p. MTX): significant decrease in disease severity | disease severity (arthritis score) compared to Pristane+PBS ([2]; chronic phase, days 84-100, no treatment after day 28, Pristane+i.p. MTX, listed as methotrexate): significantly reduces disease scoring | severity of cartilage damage compared to Pristane+PBS [3]: reduced the severity of cartilage damage | severity of proteoglycan loss compared to Pristane+PBS [3]: reduced the severity of proteoglycan loss | adverse bone remodeling by microCT, compared to the vehicle control [4]: substantially prevented adverse bone remodeling
